# Measured values as given in patent US20140309229A1, “METHODS FOR SELECTING AND TREATING CANCER IN PATIENTS WITH IGF-1R/IR INHIBITORS” (priority 2011, published 2014).
# Legend:
# Test in all cases: MTS proliferation assay
# Format in all cases: cell-based, human
# COLO741 = system: COLO741
# Protocol: (§1) Cell lines and in vitro cytotoxicity assay. Cells were maintained at 37° C. under standard cell culture conditions. Cells were plated at an optimized density for each cell line per well in 96-well microtiter FALCON® plates, incubated overnight, and then exposed to a serial dilution of drug. […] The results were expressed as an IC50, which is the drug concentration required to inhibit cell proliferation to 50% of that of untreated control cells. The mean IC50 and standard deviation (SD) from multiple tests for each cell line were calculated.
# (§2) In vitro Cellular Proliferation Assays.
# CX-1 = system: CX-1
# Protocol: as §1, §2
# GP5D = system: GP5D
# Protocol: as §1, §2
# HCC-56 = system: HCC-56
# Protocol: as §1, §2
# HCT-15 = system: HCT-15
# Protocol: as §1, §2
# HCT116SS42 = system: HCT116SS42
# Protocol: as §1, §2
# HCT8 = system: HCT8
# Protocol: as §1, §2
# HT-29 = system: HT-29
# Protocol: as §1, §2
# KM12C = system: KM12C
# Protocol: as §1, §2
# KM12SM = system: KM12SM
# Protocol: as §1, §2
# LS-513 = system: LS-513
# Protocol: as §1, §2
# LoVo = system: LoVo
# Protocol: as §1, §2
# OUMS-23 = system: OUMS-23
# Protocol: as §1, §2
# RCM-1 = system: RCM-1
# Protocol: as §1, §2
# RKO = system: RKO
# Protocol: as §1, §2
# SK-CO-1 = details: for IC50: Homo sapiens
# Protocol: as §1, §2
# SNU-407 = system: SNU-407
# Protocol: as §1, §2
# SNU-61 = system: SNU-61
# Protocol: as §1, §2
# SNU-81 = system: SNU-81
# Protocol: as §1, §2
# SNU-C1 = system: SNU-C1
# Protocol: as §1, §2
# SNU-C2B = system: SNU-C2B
# Protocol: as §1, §2
# SNU175 = system: SNU175
# Protocol: as §1, §2
# SW1116 = system: SW1116
# Protocol: as §1, §2
# SW1463 = system: SW1463
# Protocol: as §1, §2
# SW48 = system: SW48
# Protocol: as §1, §2
# SW620 = system: SW620
# Protocol: as §1, §2
# SW837 = system: SW837
# Protocol: as §1, §2
# SW948 = system: SW948
# Protocol: as §1, §2
# T84 = system: T84
# Protocol: as §1, §2
# [1] = preliminary panel of 45 CRC cell lines
smiles,measurement,setting,value
"C[C@@]1(C(=O)Nc2ccc(F)nc2)CCCN1c1nc(Nc2cc(C3CC3)n[nH]2)c2cccn2n1 [BMS-754807, (2S)-1-(4-((5-cyclopropyl-1H-pyrazol-3-yl)amino)pyrrolo[2,1-f][1,2,4]triazin-2-yl)-N-(6-fluoro-3-pyridinyl)-2-methyl-2-pyrrolidinecarboxamide]",Sensitivity Classes,COLO741; COLO741,R (“R” refers Resistant)
same,IC50,"COLO741; Homo sapiens, COLO-741, 72 h",1.35 µM
same,Sensitivity Classes,CX-1; CX-1,R (“R” refers Resistant)
same,Sensitivity to BMS-754807,"CX-1; CX-1, preliminary panel of 45 CRC cell lines",Intermediate (remaining 30 cell lines classified as Intermediate or resistant)
same,IC50,"CX-1; Homo sapiens, CX-1, 72 h",0.194 µM
same,Sensitivity Classes,GP5D; GP5D,R (“R” refers Resistant)
same,IC50,"GP5D; Homo sapiens, GP5d, 72 h",0.252 µM
same,Sensitivity Classes,HCC-56; HCC-56,S (“S” refers Sensitive)
same,IC50,"HCC-56; Homo sapiens, 72 h",0.005 µM
same,Sensitivity to BMS-754807,"HCT-15; HCT15, preliminary panel of 45 CRC cell lines",Resistant (resistant cell lines had IC50 values of >50 nmol/L)
same,Sensitivity Classes,HCT-15; HCT-15,R (“R” refers Resistant)
same,IC50,"HCT-15; Homo sapiens, HCT-15, 72 h",0.757 µM
same,Sensitivity Classes,HCT116SS42; HCT116SS42,R (“R” refers Resistant)
same,Sensitivity to BMS-754807,"HCT116SS42; HCT116SS42, preliminary panel of 45 CRC cell lines",Intermediate (remaining 30 cell lines classified as Intermediate or resistant)
same,IC50,"HCT116SS42; Homo sapiens, 72 h",0.427 µM
same,Sensitivity Classes,HCT8; HCT8,R (“R” refers Resistant)
same,Sensitivity to BMS-754807,"HCT8; HCT8, preliminary panel of 45 CRC cell lines",Resistant (resistant cell lines had IC50 values of >50 nmol/L)
same,IC50,"HCT8; Homo sapiens, HCT-8, 72 h",4.86 µM
same,Sensitivity to BMS-754807,"HT-29; HT29, preliminary panel of 45 CRC cell lines",Intermediate (remaining 30 cell lines classified as Intermediate or resistant)
same,Sensitivity Classes,HT-29; HT-29,R (“R” refers Resistant)
same,IC50,"HT-29; Homo sapiens, HT-29, 72 h",0.451 µM
same,Sensitivity Classes,KM12C,S (“S” refers Sensitive)
same,IC50,"KM12C; Homo sapiens, 72 h",0.033 µM
same,Sensitivity to BMS-754807,KM12C; [1],Sensitive (a sensitive cell line was classified as one with an IC50 of ≦50 nmol/L)
same,IC50,"KM12SM; Homo sapiens, 72 h",0.037 µM
same,Sensitivity Classes,KM12SM; KM12SM,S (“S” refers Sensitive)
same,Sensitivity to BMS-754807,"KM12SM; KM12SM, preliminary panel of 45 CRC cell lines",Sensitive (a sensitive cell line was classified as one with an IC50 of ≦50 nmol/L)
same,IC50,"LS-513; Homo sapiens, LS-513, 72 h",0.015 µM
same,Sensitivity to BMS-754807,"LS-513; LS513, preliminary panel of 45 CRC cell lines",Sensitive (a sensitive cell line was classified as one with an IC50 of ≦50 nmol/L)
same,Sensitivity Classes,LS-513; LS-513,S (“S” refers Sensitive)
same,IC50,"LoVo; Homo sapiens, LoVo, 72 h",3.87 µM
same,Sensitivity to BMS-754807,"LoVo; LOVO, preliminary panel of 45 CRC cell lines",Resistant (resistant cell lines had IC50 values of >50 nmol/L)
same,Sensitivity Classes,LoVo; LoVo,R (“R” refers Resistant)
same,IC50,"OUMS-23; Homo sapiens, OUMS-23, 72 h",2.22 µM
same,Sensitivity Classes,OUMS-23; OUMS-23,R (“R” refers Resistant)
same,IC50,"RCM-1; Homo sapiens, RCM-1, 72 h",0.024 µM
same,Sensitivity Classes,RCM-1; RCM-1,S (“S” refers Sensitive)
same,Sensitivity Classes,RKO,R (“R” refers Resistant)
same,IC50,"RKO; Homo sapiens, 72 h",0.857 µM
same,Sensitivity to BMS-754807,RKO; [1],Resistant (resistant cell lines had IC50 values of >50 nmol/L)
same,IC50,SK-CO-1; SK-CO-1,0.003 µM
same,IC50,"SK-CO-1; SK-CO-1, 72 h",0.003 µM
same,Sensitivity Classes,SK-CO-1; SK-CO-1,S (“S” refers Sensitive)
same,Sensitivity to BMS-754807,"SK-CO-1; SK-CO-1, preliminary panel of 45 CRC cell lines",Sensitive (a sensitive cell line was classified as one with an IC50 of ≦50 nmol/L)
same,IC50,"SNU-407; Homo sapiens, SNU-407, 72 h",0.013 µM
same,Sensitivity Classes,SNU-407; SNU-407,S (“S” refers Sensitive)
same,IC50,"SNU-61; Homo sapiens, 72 h",0.035 µM
same,Sensitivity Classes,SNU-61; SNU-61,S (“S” refers Sensitive)
same,IC50,"SNU-81; Homo sapiens, 72 h",5 µM
same,Sensitivity Classes,SNU-81; SNU-81,R (“R” refers Resistant)
same,IC50,"SNU-C1; Homo sapiens, SNU-C1, 72 h",0.013 µM
same,Sensitivity Classes,SNU-C1; SNU-C1,S (“S” refers Sensitive)
same,Sensitivity to BMS-754807,"SNU-C1; SNUC1, preliminary panel of 45 CRC cell lines",Sensitive (a sensitive cell line was classified as one with an IC50 of ≦50 nmol/L)
same,IC50,"SNU-C2B; Homo sapiens, SNU-C2B, 72 h",1.48 µM
same,Sensitivity Classes,SNU-C2B; SNU-C2B,R (“R” refers Resistant)
same,Sensitivity to BMS-754807,"SNU-C2B; SNUC2B, preliminary panel of 45 CRC cell lines",Resistant (resistant cell lines had IC50 values of >50 nmol/L)
same,IC50,"SNU175; Homo sapiens, 72 h",0.003 µM
same,Sensitivity Classes,SNU175; SNU175,S (“S” refers Sensitive)
same,IC50,"SW1116; Homo sapiens, SW 1116, 72 h",0.024 µM
same,Sensitivity Classes,SW1116; SW1116,S (“S” refers Sensitive)
same,Sensitivity to BMS-754807,"SW1116; SW1116, preliminary panel of 45 CRC cell lines",Sensitive (a sensitive cell line was classified as one with an IC50 of ≦50 nmol/L)
same,IC50,"SW1463; Homo sapiens, SW1463, 72 h",0.016 µM
same,Sensitivity Classes,SW1463; SW1463,S (“S” refers Sensitive)
same,Sensitivity to BMS-754807,"SW1463; SW1463, preliminary panel of 45 CRC cell lines",Sensitive (a sensitive cell line was classified as one with an IC50 of ≦50 nmol/L)
same,IC50,"SW48; Homo sapiens, SW48, 72 h",0.013 µM
same,Sensitivity Classes,SW48; SW48,S (“S” refers Sensitive)
same,Sensitivity to BMS-754807,"SW48; SW48, preliminary panel of 45 CRC cell lines",Sensitive (a sensitive cell line was classified as one with an IC50 of ≦50 nmol/L)
same,IC50,"SW620; Homo sapiens, SW-620, 72 h",1.83 µM
same,Sensitivity Classes,SW620; SW620,R (“R” refers Resistant)
same,Sensitivity to BMS-754807,"SW620; SW620, preliminary panel of 45 CRC cell lines",Resistant (resistant cell lines had IC50 values of >50 nmol/L)
same,IC50,"SW837; Homo sapiens, SW837, 72 h",1.89 µM
same,Sensitivity Classes,SW837; SW837,R (“R” refers Resistant)
same,Sensitivity to BMS-754807,"SW837; SW837, preliminary panel of 45 CRC cell lines",Resistant (resistant cell lines had IC50 values of >50 nmol/L)
same,IC50,"SW948; Homo sapiens, SW948, 72 h",0.018 µM
same,Sensitivity Classes,SW948; SW948,S (“S” refers Sensitive)
same,Sensitivity to BMS-754807,"SW948; SW948, preliminary panel of 45 CRC cell lines",Sensitive (a sensitive cell line was classified as one with an IC50 of ≦50 nmol/L)
same,IC50,"T84; Homo sapiens, T84, 72 h",5.2 µM
same,Sensitivity Classes,T84; T84,R (“R” refers Resistant)
same,Sensitivity to BMS-754807,"T84; T84, preliminary panel of 45 CRC cell lines",Resistant (resistant cell lines had IC50 values of >50 nmol/L)
